Measurements: patent publication US20200390101A1, “MICROBICIDAL COMPOSITION” (DOW GLOBAL TECHNOLOGIES LLC, priority 2017, published 2020)

Test system: anaerobic sulfate-reducing bacteria
Experiment: Sulfide control efficacy against anaerobic sulfate-reducing bacteria (colorimetric sulfide measurement after 2 days at 35° C.)
Assay type: cell-based
Settings: for Sulfide (ppm): sulfide level at the listed THPS/nitrate concentrations after 2 days at 35° C.
Description: Inside an anaerobic chamber (Bactron anaerobic chamber), a deoxygenated sterile salt solution (3.12 g of NaCl, 0.13 g of NaHCO3, 0.17 g of Na2SO4, 47.70 mg of KC1, 72.00 mg of CaCl2, 54.49 mg of MgSO4, 43.92 mg of Na2CO3 in 1 L water and then enriched with 5% of ATCC 1249 Modified Baar's Medium) was inoculated with a sulfate-reducing bacteria which has a high similarity in 16S rRNA gene sequence with Desulfovibrio alaskensis and Desulfovibrio vietnamensis, at a final bacterial concentrations of 10^7 CFU/mL. […] After the mixtures were incubated at 35° C. for 2 days, sulfide level in all treatments including non THPS and or nitrate controls were measured using a colorimetric method described by D. Andrew et. al in “Standard Methods for the Examination of Water and Wastewater 4500-S2-”, with a scaled down sample size (250 μl) and reagents (scaled down accordingly) to allow the analysis to be done in 96-well micro-titer plates. Final results were read using a 96-well plate reader (TECAN Sunrise) at wavelength of 580 nm.
SI is calculated as follows:
Ca/CA+Cb/CB=Synergy Index (“SI”)

## O=[N+]([O-])[O-].[Na+] [THPS:Nitrate 0:1, sodium nitrate]
Nitrate component (sodium nitrate), 10^7 CFU/mL, 35° C., 2 days, anaerobic
  Active ppm concentration required to control sulfide below 10 ppm, Nitrate: >800 ppm
  Sulfide (ppm): 74.26 ppm

## tetrakis(hydroxymethyl) phosphonium sulfate [THPS:Nitrate 1:0]
THPS component, 10^7 CFU/mL, 35° C., 2 days, anaerobic
  Active ppm concentration required to control sulfide below 10 ppm, THPS: 12.50 ppm
  Sulfide (ppm): 2.48 ppm
